Source: patent US12281080B2, “Quinoline-based compounds and methods of inhibiting CDK8/19” (University of South Carolina, priority 2018, dated 2025)
Where two headings read alike, the source gives them in different places.

Assays:
[1] = test system: CDK8/19-mediated NFκB-driven transcription; test: NFκB-dependent luciferase reporter assay in parental 293 reporter cells; format: cell-based, human; conditions: for Inhibition of NFκB reporter activity / inhibition at 1 µM: 1 uM
CXCL1 = test: QPCR gene expression in TNFα-treated HEK293 cells; format: cell-based, human; conditions: 1 μM, TNFα-treated HEK293 cells, QPCR; for inhibition at 1 µM: Homo sapiens, read-out: Inhibition at 1 μM (% Ctrl) CXCL1
Excerpt: (§1) Two types of cell-based assays for CDK8/19 inhibition were used to test the efficacy of quinoline quinolone compounds described herein (FIG. 3A). The first cell-based assay, which measures the effects of CDK8/19 inhibitors on RNA levels of CDK8/19-regulated genes by quantitative reverse transcription-PCR (QPCR), is based on the ability of CDK8/19 inhibitors to suppress the induction of NFκB-inducible genes by TNFα and to inhibit basal expression of MYC in human embryonic kidney (HEK) 293 cells, as previously described. In this assay, 293 cells growing in DMEM (High-glucose) media supplemented with 10% FBS are pre-treated with the tested inhibitors or DMSO control for 1 hour and then treated with 10 ng/mL TNFα (an activator of NFκB) for 2 hours (in the presence or absence of the tested inhibitors), followed by RNA extraction and QPCR analysis of RNA expression of specific genes conducted as described (Chen et al., ibid), using housekeeping genes RPL13A and GAPDH as normalization standards. […] All the quinoline derivatives inhibited the expression of all three genes.

IL8 = test: QPCR gene expression in TNFα-treated HEK293 cells; format: cell-based, human; conditions: 1 μM, TNFα-treated HEK293 cells, QPCR; for inhibition at 1 µM: Homo sapiens, read-out: Inhibition at 1 μM (% Ctrl) IL8
Excerpt: as §1

MYC = test: QPCR gene expression in TNFα-treated HEK293 cells; format: cell-based, human; conditions: 1 μM, TNFα-treated HEK293 cells, QPCR; for inhibition at 1 µM: Homo sapiens, read-out: Inhibition at 1 μM (% Ctrl) MYC
Excerpt: as §1

MV4-11 cells = test: MV4-11-Luc proliferation assay (BLI); format: cell-based; conditions: Homo sapiens, MV4-11, 168 h; 7 days
Experimental: The anti-leukemic activity was evaluated with a MV4-11 assay. The population of MV4-11 cells, which depend on CDK8/19 for their proliferation, was made to express Luciferase and ZsGreen by lenvtiral infection with pHIV-Luc-ZsGreen, to enable leukemia growth analysis by bioluminescence imaging (BLI). The initial Luciferase-ZsGreen transduced cell population was sorted for ZsGreen positivity with fluorescence activated cell sorting. The MV4-11 assay was performed in 96-well plates by treating the MV4-11-Luc cells with testing compounds at different concentrations for 7 days, followed by BLI to quantify the effects of test articles on cell proliferation.

HL60-Luc cells = test: HL60-Luc proliferation assay (BLI); format: cell-based; conditions: HL-60-Luc, 168 h; 7 days
Experimental: The anti-leukemic activity was also evaluated with a HL60 assay. The HL60 assay was performed by a similar procedure as MV4-11 assay. A derivative of the HL-60 leukemia cell line was generated to express Luciferase and ZsGreen by lentiviral infection with pHIV-Luc-ZsGreen, to enable leukemia growth analysis by bioluminescence imaging (BLI). The initial Luciferase-ZsGreen transduced cell population was sorted for ZsGreen positivity with fluorescence activated cell sorting and individual clones were tested for luciferase expression. […] The HL-60 assay was performed in 96-well plates by treating the HL60-Luc cells with testing compounds at different concentrations for 7 days, followed by BLI to quantify the effects of test articles on cell proliferation.

[2] = target: CDK8 in complex with Cyclin C (Homo sapiens (Human), UniProt P49336); test: LanthaScreen Eu Kinase Binding Assay
Excerpt: The binding of the tracer to the kinase is detected using a europium-labeled anti-tag antibody, which binds to the kinase of interest. […] The binding of an inhibitor to the kinase competes for binding with the tracer, resulting in a loss of FRET.

[3] = test system: NFκB-dependent promoter in CDK8/19 deficient (double-knockout) reporter cells; test: NFκB-dependent luciferase reporter assay, CDK8/19 double-knockout vs wild-type 293 cells; conditions: double-knockout vs parental reporter cells
Excerpt: The second cell-based assay measures the effects of CDK8/19 on the expression of firefly luciferase reporter from a NFκB-dependent promoter in 293 cells.

CDK8/19 = test: Wash-off assay, MYC and JUN expression in 293 cells (QPCR); format: cell-based, human; conditions: 1 μM for 2 hours, then wash-off
Experimental: RNA was extracted at different time points after wash-off (up to 24 hrs) and expression of MYC and JUN genes that are CDK8/19-dependent in these cells was measured by QPCR. […] In contrast, after Senexin C treatment and wash-off, the effects of Senexin C were largely retained for at least 6 hrs after wash-off.

[4] = Mouse pharmacokinetics, intraperitoneal, serum; format: in vivo, mice; conditions: i.p. 27 mg/kg, male Balb/c mice
Experimental: […] Blood samples were collected at different time points (5 mice per time point) and Senexin C concentration in the serum was measured by LC/MS/MS.

CDK8 = CDK8 (Homo sapiens (Human), UniProt P49336); test: DiscoverX Kd assay; conditions: average from duplicate measurements
HASPIN = HASPIN (Homo sapiens (Human), UniProt Q8TF76); test: DiscoverX Kd assay; conditions: average from duplicate measurements
MAP4K2 = MAP4K2 (Homo sapiens (Human), UniProt Q12851); test: DiscoverX Kd assay; conditions: average from duplicate measurements
MYO3B = MYO3B (Homo sapiens (Human), UniProt Q8WXR4); test: DiscoverX Kd assay
[5] = parental 293-derived reporter cell line, read-out: HEK293 NFKB CDK8 Reporter IC50
[6] = Homo sapiens, 293/NFkB-luc, read-out: IC50 (293-NFKB-Luc)

Chain of CDK8 in complex with Cyclin C (P49336 whole entry): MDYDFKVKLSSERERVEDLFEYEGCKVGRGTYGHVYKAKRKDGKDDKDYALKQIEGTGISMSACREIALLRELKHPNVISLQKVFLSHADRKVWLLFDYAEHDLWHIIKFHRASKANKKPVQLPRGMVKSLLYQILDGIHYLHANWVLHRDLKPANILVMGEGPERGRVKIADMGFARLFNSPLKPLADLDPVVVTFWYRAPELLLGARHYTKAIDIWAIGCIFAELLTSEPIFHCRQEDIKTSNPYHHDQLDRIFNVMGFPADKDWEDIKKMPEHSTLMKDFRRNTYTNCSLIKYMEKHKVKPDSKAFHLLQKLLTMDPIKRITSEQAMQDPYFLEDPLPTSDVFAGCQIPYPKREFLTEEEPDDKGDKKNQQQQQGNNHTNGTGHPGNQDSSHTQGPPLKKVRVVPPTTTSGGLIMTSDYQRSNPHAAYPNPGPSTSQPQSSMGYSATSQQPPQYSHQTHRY
Chain of CDK8 in complex with Cyclin C (P24863 whole entry partner): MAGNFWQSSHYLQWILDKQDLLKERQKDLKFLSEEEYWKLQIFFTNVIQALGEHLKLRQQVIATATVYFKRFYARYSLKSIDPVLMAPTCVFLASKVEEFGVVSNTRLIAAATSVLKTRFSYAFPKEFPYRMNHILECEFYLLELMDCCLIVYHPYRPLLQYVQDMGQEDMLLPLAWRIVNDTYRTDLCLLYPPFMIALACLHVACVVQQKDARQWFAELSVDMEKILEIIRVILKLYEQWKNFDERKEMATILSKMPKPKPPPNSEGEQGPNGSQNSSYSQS
Chain of CDK8 (P49336 whole entry): as the sequence (P49336 whole entry) above
Chain of HASPIN (Q8TF76 whole entry): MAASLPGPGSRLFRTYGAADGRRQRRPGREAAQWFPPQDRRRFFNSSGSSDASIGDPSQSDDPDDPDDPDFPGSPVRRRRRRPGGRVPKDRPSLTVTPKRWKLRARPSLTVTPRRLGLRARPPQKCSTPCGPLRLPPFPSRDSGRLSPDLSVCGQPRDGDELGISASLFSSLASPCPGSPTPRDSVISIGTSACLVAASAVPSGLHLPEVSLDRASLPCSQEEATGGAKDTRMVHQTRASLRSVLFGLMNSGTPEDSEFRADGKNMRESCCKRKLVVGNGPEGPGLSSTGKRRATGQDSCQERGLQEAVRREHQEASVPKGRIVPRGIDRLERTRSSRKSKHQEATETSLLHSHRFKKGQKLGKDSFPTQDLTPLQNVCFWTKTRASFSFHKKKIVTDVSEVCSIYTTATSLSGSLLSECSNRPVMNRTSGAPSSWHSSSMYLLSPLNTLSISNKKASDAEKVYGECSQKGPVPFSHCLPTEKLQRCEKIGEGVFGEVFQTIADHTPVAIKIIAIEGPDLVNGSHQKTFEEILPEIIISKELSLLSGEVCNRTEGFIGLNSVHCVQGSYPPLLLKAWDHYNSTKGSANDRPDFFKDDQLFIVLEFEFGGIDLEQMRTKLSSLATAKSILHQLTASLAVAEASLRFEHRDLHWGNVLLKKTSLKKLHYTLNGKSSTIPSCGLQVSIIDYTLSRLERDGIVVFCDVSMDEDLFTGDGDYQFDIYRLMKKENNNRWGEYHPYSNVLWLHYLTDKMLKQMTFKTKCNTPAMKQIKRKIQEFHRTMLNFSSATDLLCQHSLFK
Chain of MYO3B (Q8WXR4 whole entry): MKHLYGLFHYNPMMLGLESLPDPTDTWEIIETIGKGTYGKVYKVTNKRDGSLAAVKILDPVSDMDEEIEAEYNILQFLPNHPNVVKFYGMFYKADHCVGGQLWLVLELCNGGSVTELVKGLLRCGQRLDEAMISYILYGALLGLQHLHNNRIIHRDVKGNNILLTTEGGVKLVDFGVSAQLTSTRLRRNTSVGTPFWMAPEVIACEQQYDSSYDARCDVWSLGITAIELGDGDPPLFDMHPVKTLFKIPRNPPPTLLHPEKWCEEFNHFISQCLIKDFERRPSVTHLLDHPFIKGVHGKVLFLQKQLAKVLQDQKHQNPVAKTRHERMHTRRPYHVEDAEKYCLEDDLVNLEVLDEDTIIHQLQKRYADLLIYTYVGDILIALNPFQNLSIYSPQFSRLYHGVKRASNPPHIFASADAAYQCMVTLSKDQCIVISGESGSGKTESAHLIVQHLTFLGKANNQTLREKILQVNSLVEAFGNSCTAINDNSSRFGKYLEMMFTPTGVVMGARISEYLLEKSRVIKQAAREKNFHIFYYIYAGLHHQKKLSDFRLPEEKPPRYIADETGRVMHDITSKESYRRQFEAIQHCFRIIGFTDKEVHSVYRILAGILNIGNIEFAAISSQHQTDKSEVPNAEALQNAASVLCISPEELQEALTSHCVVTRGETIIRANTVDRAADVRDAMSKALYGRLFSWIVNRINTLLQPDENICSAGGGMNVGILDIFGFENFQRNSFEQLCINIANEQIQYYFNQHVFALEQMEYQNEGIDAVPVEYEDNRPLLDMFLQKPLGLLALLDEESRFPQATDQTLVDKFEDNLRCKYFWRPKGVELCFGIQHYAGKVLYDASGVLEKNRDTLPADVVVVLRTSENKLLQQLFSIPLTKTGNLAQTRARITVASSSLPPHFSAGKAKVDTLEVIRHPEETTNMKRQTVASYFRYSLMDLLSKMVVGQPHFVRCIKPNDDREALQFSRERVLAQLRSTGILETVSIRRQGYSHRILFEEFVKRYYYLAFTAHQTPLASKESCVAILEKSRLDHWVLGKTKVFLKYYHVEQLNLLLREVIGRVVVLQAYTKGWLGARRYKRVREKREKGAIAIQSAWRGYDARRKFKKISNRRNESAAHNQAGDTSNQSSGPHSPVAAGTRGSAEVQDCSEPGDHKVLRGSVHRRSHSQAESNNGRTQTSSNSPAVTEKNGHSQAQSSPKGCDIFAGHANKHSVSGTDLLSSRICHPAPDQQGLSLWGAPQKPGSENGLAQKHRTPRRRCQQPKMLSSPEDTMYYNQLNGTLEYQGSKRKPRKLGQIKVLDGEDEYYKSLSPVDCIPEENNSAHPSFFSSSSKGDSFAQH
Chain of MAP4K2 (Q12851 whole entry): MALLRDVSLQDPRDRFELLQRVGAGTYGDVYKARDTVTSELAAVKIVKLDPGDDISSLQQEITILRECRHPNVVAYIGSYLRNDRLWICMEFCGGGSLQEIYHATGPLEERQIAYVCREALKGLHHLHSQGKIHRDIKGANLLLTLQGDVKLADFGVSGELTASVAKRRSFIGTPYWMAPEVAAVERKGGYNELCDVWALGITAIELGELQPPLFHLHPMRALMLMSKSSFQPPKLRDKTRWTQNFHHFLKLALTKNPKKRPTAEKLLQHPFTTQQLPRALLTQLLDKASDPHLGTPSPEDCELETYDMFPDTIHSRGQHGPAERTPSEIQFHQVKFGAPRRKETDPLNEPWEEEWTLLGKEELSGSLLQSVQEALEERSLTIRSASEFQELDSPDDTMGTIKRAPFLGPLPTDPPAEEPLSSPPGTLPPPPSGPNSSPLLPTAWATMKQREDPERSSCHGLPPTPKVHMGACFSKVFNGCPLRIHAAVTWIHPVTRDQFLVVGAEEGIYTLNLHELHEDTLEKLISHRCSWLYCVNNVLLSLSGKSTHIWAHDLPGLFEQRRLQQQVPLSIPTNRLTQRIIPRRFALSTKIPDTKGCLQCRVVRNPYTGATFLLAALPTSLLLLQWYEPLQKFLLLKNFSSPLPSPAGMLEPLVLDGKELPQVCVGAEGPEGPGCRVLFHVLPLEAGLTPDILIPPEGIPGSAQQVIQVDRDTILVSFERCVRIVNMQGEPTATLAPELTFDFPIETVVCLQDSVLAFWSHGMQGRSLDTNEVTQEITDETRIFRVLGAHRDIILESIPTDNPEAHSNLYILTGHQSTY

With `Clc1ccc2nccc(NCCc3ccccc3)c2c1` [compound 6145, 6-chloro-N-phenethylquinolin-4-amine] the “Inhibition of NFκB reporter activity” value [1] was “N.A. (8% inh. at 1 uM)” and the inhibition at 1 µM ([1]; Homo sapiens) was under 15%.

For `FC(F)(F)c1ccc2nccc(NCCc3ccccc3)c2c1` [compound 6150, N-phenethyl-6-(trifluoromethyl)quinolin-4-amine], the “Inhibition of NFκB reporter activity” value [1] was “N.A. (10% inh. at 1 uM)” and the inhibition at 1 µM ([1]; Homo sapiens) was under 15%.

With `N#Cc1ccc2ncnc(NCCc3ccccc3)c2c1` [Senexin A, reference compound] the “Inhibition at 1 μM (% Ctrl) CXCL1” value (CXCL1) was 34.19%, the “Inhibition at 1 μM (% Ctrl) IL8” value (IL8) was 29.53% and the “Inhibition at 1 μM (% Ctrl) MYC” value (MYC) was 24.94%. For the same compound, the IC50 [1, 5] was 355 nM.

For `Ic1ccc2nccc(NCCc3ccccc3)c2c1` [compound 6147, 6-iodo-N-phenethylquinolin-4-amine], the inhibition at 1 µM ([1]; Homo sapiens) was under 15%.

With `N#Cc1ccc2nccc(NCCc3ccc4cc(C(=O)N5CCS(=N)(=O)CC5)ccc4c3)c2c1` [compound 6299, 4-[2-[6-(1-imino-1-oxo-1,4-thiazinane-4-carbonyl)-2-naphthyl]ethylamino]quinoline-6-carbonitrile] the IC50 [1, 6] was 213 nM, the IC50 (MV4-11 cells) was 275 nM and the IC50 (HL60-Luc cells) was 260 nM. It also gave an IC50 [2] of 4.6 nM.

In the case of `Cc1ccc(S(=O)(=O)N[C@@H](Cc2ccccc2)C(=O)CCl)cc1` [TPCK, reference compound], the “IC50 in CDK8/19-deficient cells relative to wild-type cells” value [3] is reported as “almost the same”.

`CC(C)Nc1ccnc2ccc(C#N)cc12` [compound 6136, 4-(isopropylamino)quinoline-6-carbonitrile] showed an inhibition at 1 µM (CXCL1) of 80.3%, an inhibition at 1 µM (IL8) of 74.1% and an inhibition at 1 µM (MYC) of 65.6%.

With `CN1CCN(C(=O)c2ccc3cc(CCNc4ncnc5ccc(C#N)cc45)ccc3c2)CC1` [Senexin B, reference compound] the IC50 [1, 5] was 117 nM, the “Time to full restoration of JUN expression after wash-off” value (CDK8/19) was 45 min and the “Time to full restoration of MYC expression after wash-off” value (CDK8/19) was 2 h. For the same compound, the AUC [4] was 1760.53 ng·h/mL, the Cmax [4] was 4248 ng/mL and the “bioavailability (F %)” value [4] was 57%. The elimination rate k [4] was 3.99 h⁻¹, the t1/2 [4] was 10.2 min and the Kd (CDK8) was 59 nM. For the same compound, the Kd (HASPIN) was 1700 nM, the Kd (MAP4K2) was 570 nM and the “Inhibition of MYO3B” value (MYO3B) was “not inhibited”.

With `CC(C)(C)OC(=O)NCCCN1CCN(C(=O)c2ccc3cc(CCNc4ccnc5ccc(C#N)cc45)ccc3c2)CC1` [compound 6345, tert-butyl-(3-(4-(6-(2-((6-cyanoquinolin-4-yl)amino)ethyl)-2-naphthoyl)piperazin-1-yl)propyl)carbamate] the IC50 [1, 6] was 85 nM, the IC50 (MV4-11 cells) was 122 nM and the IC50 (HL60-Luc cells) was 61 nM. The IC50 [2] was 8.1 nM.

In the case of `N#Cc1ccc2nccc(NCCc3ccc4cc(C(=O)N5CCSCC5)ccc4c3)c2c1` [compound 6294, 4-[2-[6-(thiomorpholine-4-carbonyl)-2-naphthyl]ethylamino]quinoline-6-carbonitrile], the IC50 [1, 6] is reported as 107 nM, the IC50 (MV4-11 cells) is reported as 92 nM and the IC50 (HL60-Luc cells) is reported as 73.4 nM. The IC50 [2] was 9.7 nM.

In the case of `Nc1ccc2nccc(NCCc3ccccc3)c2c1` [compound 6164, N4-phenethylquinoline-4,6-diamine], the inhibition at 5 µM ([1]; Homo sapiens, 5 uM) is reported as 5%.

Compound `CC(=O)N1CCN(C(=O)c2ccc3cc(CCNc4ccnc5ccc(C#N)cc45)ccc3c2)CC1` [compound 6326, 4-[2-[6-(4-acetylpiperazine-1-carbonyl)-2-naphthyl]ethylamino]quinoline-6-carbonitrile] has an IC50 [1, 6] of 178 nM, an IC50 (MV4-11 cells) of 295 nM and an IC50 (HL60-Luc cells) of 162 nM. For the same compound, the IC50 [2] was 11.7 nM.

For `Brc1ccc2nccc(NCCc3ccccc3)c2c1` [compound 6146, 6-bromo-N-phenethylquinolin-4-amine], the “Inhibition of NFκB reporter activity” value [1] was “N.A. (10% inh. at 1 uM)” and the inhibition at 1 µM ([1]; Homo sapiens) was under 15%.

`N#Cc1ccc2nccc(NCCc3ccc4cc(C(=O)N5CC[S+]([O-])CC5)ccc4c3)c2c1` [compound 6295, 4-[2-[6-(1-oxo-1,4-thiazinane-4-carbonyl)-2-naphthyl]ethylamino]quinoline-6-carbonitrile] gave an IC50 [1, 6] of 160 nM, an IC50 (MV4-11 cells) of 218 nM and an IC50 (HL60-Luc cells) of 163 nM. It also gave an IC50 [2] of 5.8 nM.

Compound `N#Cc1ccc2nccc(NCCc3ccc4cc(C(=O)N5CCN(CCCO)CC5)ccc4c3)c2c1` [compound 6216, 4-((2-(6-(4-(3-hydroxypropyl)piperazine-1-carbonyl)naphthalen-2-yl)ethyl)amino)quinoline-6-carbonitrile] has an IC50 (HL60-Luc cells) of 161 nM.

Work on `CC(C)(C)OC(=O)N1CCN(C(=O)c2ccc3cc(CCNc4ccnc5ccc(C#N)cc45)ccc3c2)CC1` [compound 6440, tert-butyl 4-[6-[2-[(6-cyano-4-quinolyl)amino]ethyl]naphthalene-2-carbonyl]piperazine-1-carboxylate] yielded an IC50 [1, 6] of 137 nM, an IC50 (MV4-11 cells) of 146 nM and an IC50 (HL60-Luc cells) of 67 nM. It also gave an IC50 [2] of 18.9 nM.

`CN(C)C(=O)c1ccc2cc(CCNc3ccnc4ccc(C#N)cc34)ccc2c1` [compound 6219, 6-(2-((6-cyanoquinolin-4-yl)amino)ethyl)-N,N-dimethyl-2-naphthamide] showed an IC50 (HL60-Luc cells) of 77 nM.

`N#Cc1ccc2nccc(NCCc3ccc4cc(C(=O)N5CCN(CCCN)CC5)ccc4c3)c2c1` [compound 6346, 4-[2-[6-[4-(3-aminopropyl)piperazine-1-carbonyl]-2-naphthyl]ethylamino]quinoline-6-carbonitrile] showed an IC50 [1, 6] of 837 nM, an IC50 (HL60-Luc cells) of 308 nM and an IC50 [2] of 6.5 nM.

Compound `CCCNc1ccnc2ccc(C#N)cc12` [compound 6134, 4-(propylamino)quinoline-6-carbonitrile] has an inhibition at 1 µM (CXCL1) of 72.2%, an inhibition at 1 µM (IL8) of 62.1% and an inhibition at 1 µM (MYC) of 57.2%.

In the case of `CN(CCCNC(=O)OC(C)(C)C)C(=O)c1ccc2cc(CCNc3ccnc4ccc(C#N)cc34)ccc2c1` [compound 6336, tert-butyl-N-[3-[[6-[2-[(6-cyano-4-quinolyl)amino]ethyl]naphthalene-2-carbonyl]-methyl-amino]propyl]carbamate], the IC50 [1, 6] is reported as 208 nM, the IC50 (MV4-11 cells) is reported as 181 nM and the IC50 (HL60-Luc cells) is reported as 154 nM. The IC50 [2] was 9.3 nM.

For `N#Cc1ccc2nccc(NCCc3ccc4cc(C(=O)N5CCNCC5)ccc4c3)c2c1` [compound 6283, 4-((2-(6-(piperazine-1-carbonyl)naphthalen-2-yl)ethyl)amino)quinoline-6-carbonitrile], the IC50 (HL60-Luc cells) was 756 nM.

`CN(CCCN)C(=O)c1ccc2cc(CCNc3ccnc4ccc(C#N)cc34)ccc2c1` [compound 6337, N-(3-aminopropyl)-6-[2-[(6-cyano-4-quinolyl)amino]ethyl]-N-methyl-naphthalene-2-carboxamide] showed an IC50 [1, 6] of 113 nM, an IC50 (HL60-Luc cells) of 255 nM and an IC50 [2] of 9.2 nM.
